We go through 12 compounds from ChEMBL document CHEMBL3045836, “Synthesis characterization and biological evaluation of some alkoxyphthalimide derivatives of 3-(4-substituted phenyl)-6,6-diphenyl-3,3a-dihydro-2H-imidazo[2,1-b]pyrazolo[3,4-d][1,3]thiazol-7(6H)-one” (2011).

What all share (type): functional
Holding throughout (conditions): read-out: IZ

For one assay, the system named is Escherichia coli. Briefly: Antibacterial activity against Escherichia coli at 500 ppm.
The test system of the next assay is Proteus mirabilis. Put plainly: Antibacterial activity against Proteus mirabilis at 500 ppm.
The test system of another assay is Candida albicans. Briefly: Antifungal activity against Candida albicans at 500 ppm.
For the next assay, the system named is Aspergillus fumigatus. Briefly: Antifungal activity against Aspergillus fumigatus at 500 ppm.
The subject of the next assay is Bacillus subtilis. Put plainly: Antibacterial activity against Bacillus subtilis at 500 ppm.
For another assay, the system named is Pseudomonas aeruginosa. Briefly: Antibacterial activity against Pseudomonas aeruginosa at 500 ppm.

As to `O=C1c2ccccc2C(=O)N1OCCN1N=C2C(SC3=NC(c4ccccc4)(c4ccccc4)C(=O)N32)C1c1ccc(Cl)cc1` (stereo unspecified), the zone of inhibition at 500 ppm stood at 11 mm in the assay with Escherichia coli; 5 mm in the assay with Proteus mirabilis; 20 mm in the assay with Candida albicans; 6 mm with Aspergillus fumigatus; 4 mm in the assay with Bacillus subtilis; 9 mm in the assay with Pseudomonas aeruginosa.

Consider `O=C1c2ccccc2C(=O)N1OCCN1N=C2C(SC3=NC(c4ccccc4)(c4ccccc4)C(=O)N32)C1c1ccccc1` (stereo unspecified), for which the zone of inhibition at 500 ppm in the assay on Escherichia coli worked out at 12 mm; in the assay with Proteus mirabilis, 3 mm; with Candida albicans it was 19 mm; in the assay with Aspergillus fumigatus it was 4 mm; in the assay on Bacillus subtilis it was 9 mm; in the assay with Pseudomonas aeruginosa, 14 mm.

On to `O=C1c2ccccc2C(=O)N1OCCN1N=C2C(SC3=NC(c4ccccc4)(c4ccccc4)C(=O)N32)C1c1ccc(F)cc1` (stereo unspecified), for which the zone of inhibition at 500 ppm turned out to be 12 mm in the assay with Escherichia coli; 8 mm in the assay with Proteus mirabilis; 20 mm in the assay on Candida albicans; 5 mm with Aspergillus fumigatus; 6 mm with Bacillus subtilis; 11 mm with Pseudomonas aeruginosa.

Regarding `COc1ccc(C2C3SC4=NC(c5ccccc5)(c5ccccc5)C(=O)N4C3=NN2CCON2C(=O)c3ccccc3C2=O)cc1` (stereo unspecified), the zone of inhibition at 500 ppm in the assay on Escherichia coli is 9 mm; in the assay on Proteus mirabilis it was 6 mm; with Candida albicans, 18 mm; with Aspergillus fumigatus, 3 mm; in the assay on Bacillus subtilis, 11 mm; in the assay with Pseudomonas aeruginosa, 17 mm.

In the case of `CN(C)c1ccc(C2C3SC4=NC(c5ccccc5)(c5ccccc5)C(=O)N4C3=NN2CCON2C(=O)c3ccccc3C2=O)cc1` (stereo unspecified), the zone of inhibition at 500 ppm is 10 mm in the assay on Escherichia coli; 5 mm in the assay on Proteus mirabilis; 17 mm in the assay on Candida albicans; 2 mm in the assay on Aspergillus fumigatus; 7 mm in the assay on Bacillus subtilis; 10 mm with Pseudomonas aeruginosa.

For the compound `O=C1c2ccccc2C(=O)N1OCCNc1nc(-c2ccc(Cl)cc2)c2c(n1)N1C(=O)C(c3ccccc3)(c3ccccc3)N=C1S2`, the zone of inhibition at 500 ppm in the assay on Escherichia coli amounted to 13 mm; in the assay with Proteus mirabilis it was 4 mm; in the assay on Candida albicans it was 11 mm; in the assay on Aspergillus fumigatus, 6 mm; in the assay on Bacillus subtilis it was 5 mm; in the assay on Pseudomonas aeruginosa, 13 mm.

Take `O=C1c2ccccc2C(=O)N1OCCNc1nc(-c2ccccc2)c2c(n1)N1C(=O)C(c3ccccc3)(c3ccccc3)N=C1S2`: the zone of inhibition at 500 ppm with Escherichia coli came out at 18 mm; in the assay with Proteus mirabilis, 10 mm; in the assay with Candida albicans it was 26 mm; in the assay with Aspergillus fumigatus, 2 mm; in the assay with Bacillus subtilis it was 7 mm; in the assay on Pseudomonas aeruginosa, 14 mm.

For `O=C1c2ccccc2C(=O)N1OCCNc1nc(-c2ccc(F)cc2)c2c(n1)N1C(=O)C(c3ccccc3)(c3ccccc3)N=C1S2`, the zone of inhibition at 500 ppm in the assay with Escherichia coli came out at 13 mm; in the assay on Proteus mirabilis it was 8 mm; in the assay on Candida albicans, 23 mm; in the assay on Aspergillus fumigatus, 4 mm; in the assay on Bacillus subtilis, 13 mm; in the assay on Pseudomonas aeruginosa it was 21 mm.

Turning to `COc1ccc(-c2nc(NCCON3C(=O)c4ccccc4C3=O)nc3c2SC2=NC(c4ccccc4)(c4ccccc4)C(=O)N23)cc1`, the zone of inhibition at 500 ppm was determined as 11 mm in the assay with Escherichia coli; 6 mm in the assay on Proteus mirabilis; 21 mm with Candida albicans; 5 mm with Aspergillus fumigatus; 12 mm with Bacillus subtilis; 12 mm in the assay on Pseudomonas aeruginosa.

For the compound `CN(C)c1ccc(-c2nc(NCCON3C(=O)c4ccccc4C3=O)nc3c2SC2=NC(c4ccccc4)(c4ccccc4)C(=O)N23)cc1`, the zone of inhibition at 500 ppm in the assay with Escherichia coli turned out to be 15 mm; in the assay with Proteus mirabilis, 7 mm; in the assay on Candida albicans, 19 mm; in the assay with Aspergillus fumigatus, 8 mm; with Bacillus subtilis, 10 mm; in the assay on Pseudomonas aeruginosa it was 11 mm.

Take `C[C@@H]1[C@H](O)[C@@H](C)/C=C/C=C/C=C/C=C/C=C/C=C/C=C/[C@H](O[C@@H]2O[C@H](C)[C@@H](O)[C@H](N)[C@@H]2O)C[C@@H]2O[C@](O)(C[C@@H](O)C[C@@H](O)[C@H](O)CC[C@@H](O)C[C@@H](O)CC(=O)O[C@H]1C)C[C@H](O)[C@H]2C(=O)O` [AMPHOTERICIN B]: the figures for the zone of inhibition at 500 ppm in the assay on Candida albicans and with Aspergillus fumigatus were 17 mm and 10 mm, respectively.

For `O=C(O)c1cn(C2CC2)c2cc(N3CCNCC3)c(F)cc2c1=O` [CIPROFLOXACIN], the zone of inhibition at 500 ppm came to 16 mm in the assay with Escherichia coli, 16 mm in the assay on Proteus mirabilis, 17 mm in the assay with Bacillus subtilis and 18 mm in the assay with Pseudomonas aeruginosa.
